From PubChem BioAssay (NCI) come the findings set out here.

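Five compound concentrations were applied to cells in 96-well plates for 48 hours; endpoints were derived by simple linear interpolation of the resulting dose-response curve. TGI denotes the concentration required for complete inhibition of growth.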

Some test systems named below: BT-549 breast; HT29 colon; LOX IMVI melanoma; NCI-H460 lung; OVCAR-3 ovarian; PC-3 prostate; RPMI-8226 leukemia; RXF 393 renal; SK-OV-3 ovarian; UO-31 renal.
Test in all cases: NCI anticancer screen, dose series, 48 h

On to `COc1ccc(N2N=NN(C(C)C)/C2=C(/Cl)c2nnnn2-c2ccc(OC)cc2)cc1`, for which the TGI with BT-549 breast amounted to 29.7 µM; with HT29 colon it was 24.4 µM; in the test with LOX IMVI melanoma, 6.82 µM; with NCI-H460 lung, 36.6 µM; in the test on OVCAR-3 ovarian, 24.5 µM; in the test on PC-3 prostate it was 28.3 µM. Also, the TGI is above 61.2 µM in the test with RPMI-8226 leukemia, 27.4 µM with RXF 393 renal, 32.8 µM in the test on SK-OV-3 ovarian and 10.8 µM with UO-31 renal.

Take `CC(C)(C)OC(=O)n1c(Cl)c(C=O)c2ccccc21`: the TGI is 52.5 µM in the test with BT-549 breast; above 100 µM in the test on HT29 colon; 68.1 µM with LOX IMVI melanoma; 46.1 µM in the test on NCI-H460 lung; 40.8 µM in the test with OVCAR-3 ovarian; 64.6 µM in the test on PC-3 prostate. The TGI was 44.3 µM in the test on RPMI-8226 leukemia, above 100 µM with SK-OV-3 ovarian and 41.3 µM in the test on UO-31 renal.

As for `C[C@]12CC[C@H](O)CC1=CC[C@@H]1[C@@H]2CC[C@]2(C)C(=O)/C(=C/c3ccc([N+](=O)[O-])cc3)C[C@@H]12`, the TGI with BT-549 breast was 57.5 µM; in the test with HT29 colon, above 100 µM; in the test on LOX IMVI melanoma, 22.5 µM; in the test on NCI-H460 lung it was above 100 µM; with OVCAR-3 ovarian, 33.8 µM; in the test with PC-3 prostate it was 31 µM. For the same compound, the TGI in the test with RPMI-8226 leukemia was above 100 µM; in the test with RXF 393 renal, 25 µM; with SK-OV-3 ovarian it was 22.6 µM; in the test on UO-31 renal it was 28 µM.

For `CC1C(C#N)(C#N)C(C#N)=C(N)C1(C)[N+](=O)[O-]` (stereo not drawn), the TGI in the test on BT-549 breast, with HT29 colon, in the test with LOX IMVI melanoma, in the test with NCI-H460 lung, with OVCAR-3 ovarian and in the test on PC-3 prostate was above 100 µM in each case. For the same compound, the TGI with RPMI-8226 leukemia, in the test with RXF 393 renal, in the test with SK-OV-3 ovarian and in the test with UO-31 renal was above 100 µM throughout.

On to `C[C@@]12C[C@@H](c3ccccc3O1)N1Cc3ccccc3CSC1=N2`, for which the TGI in the test on BT-549 breast, in the test on HT29 colon, in the test with LOX IMVI melanoma, with NCI-H460 lung, in the test with OVCAR-3 ovarian and in the test with PC-3 prostate was above 100 µM throughout. Further, the TGI in the test with RPMI-8226 leukemia, in the test on RXF 393 renal, in the test on SK-OV-3 ovarian and in the test on UO-31 renal was above 100 µM throughout.

As for `COC12C=CC(CC1)C(C)(C)C2OS(C)(=O)=O` (stereo not drawn), the TGI in the test with BT-549 breast, with HT29 colon, in the test with NCI-H460 lung, with OVCAR-3 ovarian, in the test on PC-3 prostate and in the test on RPMI-8226 leukemia was above 100 µM in each case. Further, the TGI with RXF 393 renal, in the test on SK-OV-3 ovarian and in the test with UO-31 renal was above 100 µM in each case.

Regarding `O=C1O[C@H]2C3C4CCC(C4[C@@H]2I)[C@H]13` (stereo partly drawn), the TGI with BT-549 breast, in the test with HT29 colon, in the test with LOX IMVI melanoma, in the test on NCI-H460 lung, in the test on OVCAR-3 ovarian and in the test with PC-3 prostate was above 100 µM throughout. Moreover, the TGI in the test with RPMI-8226 leukemia, in the test on RXF 393 renal and in the test on UO-31 renal was above 100 µM in each case.

As for `COc1cc(S(=O)(=O)Nc2ccc(-c3csc(N4C(=O)C(C)SC4c4ccccc4)n3)cc2)ccc1Cl` (stereo not drawn), the TGI in the test on BT-549 breast, with HT29 colon, in the test on LOX IMVI melanoma, in the test on OVCAR-3 ovarian, with PC-3 prostate and in the test on RPMI-8226 leukemia was above 100 µM each time. Moreover, the TGI with RXF 393 renal is 47.4 µM; in the test on UO-31 renal it was above 100 µM.

Regarding `N#Cc1ccc2[nH]c3c(c2c1)CC(=O)Nc1ccccc1-3`, the TGI with BT-549 breast, in the test with HT29 colon, in the test with LOX IMVI melanoma, with NCI-H460 lung, in the test with OVCAR-3 ovarian and in the test with PC-3 prostate was above 100 µM each time. In addition, the TGI in the test on RPMI-8226 leukemia, with RXF 393 renal and in the test with UO-31 renal was above 100 µM each time.

In the case of `COc1cc(C2c3cc(OC)c(OC)c(O)c3C(=O)C3CCC(=O)N32)cc(OC)c1OC` (stereo not drawn), the TGI is 91.3 µM in the test on BT-549 breast; above 100 µM in the test with HT29 colon; above 100 µM in the test on LOX IMVI melanoma; above 100 µM with NCI-H460 lung; above 100 µM in the test on OVCAR-3 ovarian; above 100 µM in the test with PC-3 prostate. In addition, the TGI with RPMI-8226 leukemia and in the test with SK-OV-3 ovarian was above 100 µM each time.

`O=C1c2cccnc2-c2nccc3c2c1nc1ccc(Br)cc13`: the TGI amounted to 0.176 µM in the test on BT-549 breast; 0.723 µM with HT29 colon; 0.0806 µM with LOX IMVI melanoma; 0.125 µM in the test with NCI-H460 lung; 0.0586 µM in the test with OVCAR-3 ovarian; 0.234 µM with PC-3 prostate. Further, the results for the TGI with RXF 393 renal, in the test on SK-OV-3 ovarian and in the test with UO-31 renal were 0.0691 µM, 0.389 µM and 0.202 µM, respectively.

For `Cc1ccc2c(=O)cc(Cc3csc4ccccc34)[nH]c2n1`, the TGI with BT-549 breast was 66.4 µM; in the test on HT29 colon it was above 100 µM; in the test with LOX IMVI melanoma, 40.6 µM; in the test on OVCAR-3 ovarian, above 100 µM; in the test with PC-3 prostate it was above 100 µM; with RPMI-8226 leukemia, above 100 µM. The results for the TGI in the test with RXF 393 renal, in the test on SK-OV-3 ovarian and with UO-31 renal were above 100 µM, above 100 µM and 80.1 µM, respectively.

`CCC(=O)N1C(=O)C(CC)(CC)C(=O)N1C(=O)CC`: the TGI with BT-549 breast, in the test with HT29 colon, in the test with NCI-H460 lung, with OVCAR-3 ovarian, with PC-3 prostate and in the test with RPMI-8226 leukemia was above 100 µM each time. The TGI with RXF 393 renal, in the test on SK-OV-3 ovarian and in the test on UO-31 renal was above 100 µM in each case.

Consider `O=S1(=O)OCCCOS(=O)(=O)C1(Br)Br`, for which the TGI with BT-549 breast, in the test on HT29 colon, with LOX IMVI melanoma, in the test on OVCAR-3 ovarian, with PC-3 prostate and in the test with RPMI-8226 leukemia was above 100 µM in each case. Moreover, the TGI in the test with RXF 393 renal, in the test on SK-OV-3 ovarian and with UO-31 renal was above 100 µM each time.
